The source of these data is patent US8173638B2 (Boehringer Ingelheim International GmbH, priority 2006, dated 2012).

The target in this test is T1, human CB2R (Homo sapiens, UniProt P34972).
T1 construct: host or cells: CHO cells
T1 sequence (P34972 whole entry): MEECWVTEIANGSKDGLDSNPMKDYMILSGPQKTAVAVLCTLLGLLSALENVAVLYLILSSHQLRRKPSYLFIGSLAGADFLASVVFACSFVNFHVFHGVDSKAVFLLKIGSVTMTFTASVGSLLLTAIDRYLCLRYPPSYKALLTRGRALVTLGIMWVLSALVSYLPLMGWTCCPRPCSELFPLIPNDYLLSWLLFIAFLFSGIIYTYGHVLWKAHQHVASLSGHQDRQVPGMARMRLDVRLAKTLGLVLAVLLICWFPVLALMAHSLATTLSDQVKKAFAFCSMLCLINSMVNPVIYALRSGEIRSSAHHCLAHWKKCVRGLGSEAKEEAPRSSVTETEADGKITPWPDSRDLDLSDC
Description: CB2R mediated modulation of cAMP synthesis. The test is classed as cell-based. The settings on record: found through the use of the described assays (CB2 agonists); qualitative statement. The procedure, abridged: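 CHO cells expressing human CB2R treated with compound 30 min at 37 °C in buffer with 1 mM IBMX, 0.25% BSA and 10 uM forskolin. cAMP measured after lysis by DiscoverX-XS kit.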
As for `CC(C)(C)c1ccc(NC(=O)N2CCCN(C(=O)CCC3CC3)CC2)cc1` [4-(3-Cyclopropyl-propionyl)-[1,4]diazepane-1-carboxylic acid (4-tert-butyl-phenyl)-amide], the agonistic activity result is listed as “agonistic activity”.

On to `O=C(CCC1CC1)N1CCCN(C(=O)Nc2ccc3ccccc3c2)CC1` [4-(3-Cyclopropyl-propionyl)-[1,4]diazepane-1-carboxylic acid naphthalen-2-ylamide], for which the agonistic activity result is reported as “agonistic activity”.

As for `CC(C)CC(=O)N1CCCN(C(=O)Nc2cc(C(C)(C)C)on2)CC1` [4-(3-Methyl-butyryl)-[1,4]diazepane-1-carboxylic acid (5-tert-butyl-isoxazol-3-yl)-amide], the agonistic activity result is “agonistic activity”.

Take `CC(C)c1ccc(NC(=O)N2CCCN(C(=O)CCC(F)(F)F)CC2)cc1` [4-(4,4,4-Trifluoro-butyryl)-[1,4]diazepane-1-carboxylic acid (4-isopropyl-phenyl)-amide]: the agonistic activity entry is reported as “agonistic activity”.

Regarding `CC(C)(C)c1ccc(NC(=O)N2CCCN(C(=O)CCC(F)(F)F)CC2)cc1` [4-(4,4,4-Trifluoro-butyryl)-[1,4]diazepane-1-carboxylic acid (4-tert-butyl-phenyl)-amide], the agonistic activity entry is reported as “agonistic activity”.

As for `O=C(CCC(F)(F)F)N1CCCN(C(=O)Nc2ccc3ccccc3c2)CC1` [4-(4,4,4-Trifluoro-butyryl)-[1,4]diazepane-1-carboxylic acid naphthalen-2-ylamide], the agonistic activity entry is recorded as “agonistic activity”.

For the compound `CC(C)(C)c1cc(NC(=O)N2CCCN(C(=O)C3CCC(F)(F)CC3)CC2)on1` [4-(4,4-Difluoro-cyclohexanecarbonyl)-[1,4]diazepane-1-carboxylic acid (3-tert-butyl-isoxazol-5-yl)-amide], the agonistic activity entry was “agonistic activity”.

Regarding `O=C(Nc1ccc(C(F)(F)F)cc1)N1CCCN(C(=O)C2CCC(F)(F)CC2)CC1` [4-(4,4-Difluoro-cyclohexanecarbonyl)-[1,4]diazepane-1-carboxylic acid (4-trifluoromethyl-phenyl)-amide], the agonistic activity entry is listed as “agonistic activity”.

As for `Cc1nc(NC(=O)N2CCCN(C(=O)C3CCC(F)(F)CC3)CC2)sc1C(C)(C)C` [4-(4,4-Difluoro-cyclohexanecarbonyl)-[1,4]diazepane-1-carboxylic acid (5-tert-butyl-4-methyl-thiazol-2-yl)-amide], the agonistic activity result is recorded as “agonistic activity”.

`CC(C)(C)c1cc(NC(=O)N2CCCN(C(=O)C3CCC(F)(F)CC3)CC2)no1` [4-(4,4-Difluoro-cyclohexanecarbonyl)-[1,4]diazepane-1-carboxylic acid (5-tert-butyl-isoxazol-3-yl)-amide]: the agonistic activity result is on record as “agonistic activity”.

As to `CC(C)(C)c1cc(NC(=O)N2CCCN(C(=O)N3CCC(F)(F)CC3)CC2)no1` [4-(4,4-Difluoro-piperidine-1-carbonyl)-[1,4]diazepane-1-carboxylic acid (5-tert-butyl-isoxazol-3-yl)-amide], the agonistic activity result is reported as “agonistic activity”.

For `CC(=O)N1CCN(C(=O)N2CCCN(C(=O)Nc3cc(C(C)(C)C)on3)CC2)CC1` [4-(4-Acetyl-piperazine-1-carbonyl)-[1,4]diazepane-1-carboxylic acid (5-tert-butyl-isoxazol-3-yl)-amide], the agonistic activity entry is given as “agonistic activity”.

For the compound `CC(=O)NC1CCC(C(=O)N2CCCN(C(=O)Nc3cc(C(C)(C)C)on3)CC2)CC1` (stereo not drawn) [4-(4-Acetylamino-cyclohexanecarbonyl)-[1,4]diazepane-1-carboxylic acid (5-tert-butyl-isoxazol-3-yl)-amide], the agonistic activity entry is recorded as “agonistic activity”.

With `CC(C)(C)c1cc(NC(=O)N2CCCN(C(=O)C3CCC(N)CC3)CC2)no1` (stereo not drawn) [4-(4-Amino-cyclohexanecarbonyl)-[1,4]diazepane-1-carboxylic acid (5-tert-butyl-isoxazol-3-yl)-amide], the agonistic activity entry is recorded as “agonistic activity”.

As for `O=C(Nc1ccc(Cl)c(Cl)c1)N1CCCN(C(=O)c2ccc(Cl)cc2)CC1` [4-(4-Chloro-benzoyl)-[1,4]diazepane-1-carboxylic acid (3,4-dichloro-phenyl)-amide], the agonistic activity entry is reported as “agonistic activity”.

With `O=C(Nc1cc(Cl)cc(Cl)c1)N1CCCN(C(=O)c2ccc(Cl)cc2)CC1` [4-(4-Chloro-benzoyl)-[1,4]diazepane-1-carboxylic acid (3,5-dichloro-phenyl)-amide], the agonistic activity result is recorded as “agonistic activity”.

Consider `O=C(Nc1nc2c(s1)CCCC2)N1CCCN(C(=O)c2ccc(Cl)cc2)CC1` [4-(4-Chloro-benzoyl)-[1,4]diazepane-1-carboxylic acid (4,5,6,7-tetrahydro-benzothiazol-2-yl)-amide], for which the agonistic activity result is listed as “agonistic activity”.

For `O=C(Nc1nc(C2CC2)cs1)N1CCCN(C(=O)c2ccc(Cl)cc2)CC1` [4-(4-Chloro-benzoyl)-[1,4]diazepane-1-carboxylic acid (4-cyclopropyl-thiazol-2-yl)-amide], the agonistic activity result is “agonistic activity”.

`CC(C)c1ccc(NC(=O)N2CCCN(C(=O)c3ccc(Cl)cc3)CC2)cc1` [4-(4-Chloro-benzoyl)-[1,4]diazepane-1-carboxylic acid (4-isopropyl-phenyl)-amide]: the agonistic activity entry was “agonistic activity”.

Consider `O=C(Nc1nc(-c2ccccc2)cs1)N1CCCN(C(=O)c2ccc(Cl)cc2)CC1` [4-(4-Chloro-benzoyl)-[1,4]diazepane-1-carboxylic acid (4-phenyl-thiazol-2-yl)-amide], for which the agonistic activity entry is “agonistic activity”.

`O=C(Nc1ccc(C(F)(F)F)cc1)N1CCCN(C(=O)c2ccc(Cl)cc2)CC1` [4-(4-Chloro-benzoyl)-[1,4]diazepane-1-carboxylic acid (4-trifluoromethyl-phenyl)-amide]: the agonistic activity entry is recorded as “agonistic activity”.

Regarding `CC(C)(C)c1cc(NC(=O)N2CCCN(C(=O)c3ccc(Cl)cc3)CC2)no1` [4-(4-Chloro-benzoyl)-[1,4]diazepane-1-carboxylic acid (5-tert-butyl-isoxazol-3-yl)-amide], the agonistic activity result is given as “agonistic activity”.

In the case of `O=C(Nc1ccc2ccccc2c1)N1CCCN(C(=O)c2ccc(Cl)cc2)CC1` [4-(4-Chloro-benzoyl)-[1,4]diazepane-1-carboxylic acid naphthalen-2-ylamide], the agonistic activity result was “agonistic activity”.

As to `CC(C)(C)c1ccc(NC(=O)N2CCCN(C(=O)c3ccc(C#N)cc3)CC2)cc1` [4-(4-Cyano-benzoyl)-[1,4]diazepane-1-carboxylic acid (4-tert-butyl-phenyl)-amide], the agonistic activity result is reported as “agonistic activity”.

On to `N#Cc1ccc(C(=O)N2CCCN(C(=O)Nc3ccc4ccccc4c3)CC2)cc1` [4-(4-Cyano-benzoyl)-[1,4]diazepane-1-carboxylic acid naphthalen-2-ylamide], for which the agonistic activity entry is given as “agonistic activity”.

In the case of `CN(C)c1ccc(C(=O)N2CCCN(C(=O)Nc3ccc4ccccc4c3)CC2)cc1` [4-(4-Dimethylamino-benzoyl)-[1,4]diazepane-1-carboxylic acid naphthalen-2-ylamide], the agonistic activity entry was “agonistic activity”.

For the compound `O=C(Nc1ccc(C(F)(F)F)cc1)N1CCCN(C(=O)c2ccc(F)cc2)CC1` [4-(4-Fluoro-benzoyl)-[1,4]diazepane-1-carboxylic acid (4-trifluoromethyl-phenyl)-amide], the agonistic activity entry was “agonistic activity”.

As to `CC1(O)CCC(C(=O)N2CCCN(C(=O)Nc3cc(C(C)(C)C)on3)CC2)CC1` (stereo not drawn) [4-(4-Hydroxy-4-methyl-cyclohexanecarbonyl)-[1,4]diazepane-1-carboxylic acid (5-tert-butyl-isoxazol-3-yl)-amide], the agonistic activity result is listed as “agonistic activity”.

As for `O=C(Nc1nc(-c2ccccc2)cs1)N1CCCN(C(=O)C2CCC(O)CC2)CC1` (stereo not drawn) [4-(4-Hydroxy-cyclohexanecarbonyl)-[1,4]diazepane-1-carboxylic acid (4-phenyl-thiazol-2-yl)-amide], the agonistic activity result is reported as “agonistic activity”.

On to `CC(C)(C)c1cnc(NC(=O)N2CCCN(C(=O)C3CCC(O)CC3)CC2)s1` (stereo not drawn) [4-(4-Hydroxy-cyclohexanecarbonyl)-[1,4]diazepane-1-carboxylic acid (5-tert-butyl-thiazol-2-yl)-amide], for which the agonistic activity entry is “agonistic activity”.

`CC(C)(C)c1cc(NC(=O)N2CCCN(C(=O)N3CCN(S(C)(=O)=O)CC3)CC2)no1` [4-(4-Methanesulfonyl-piperazine-1-carbonyl)-[1,4]diazepane-1-carboxylic acid (5-tert-butyl-isoxazol-3-yl)-amide]: the agonistic activity entry is “agonistic activity”.

Turning to `CC(C)(C)c1cc(NC(=O)N2CCCN(C(=O)N3CCC(S(C)(=O)=O)CC3)CC2)no1` [4-(4-Methanesulfonyl-piperidine-1-carbonyl)-[1,4]diazepane-1-carboxylic acid (5-tert-butyl-isoxazol-3-yl)-amide], the agonistic activity entry is on record as “agonistic activity”.

Consider `CC(C)(C)c1cc(NC(=O)N2CCCN(C(=O)C3CCC(NS(C)(=O)=O)CC3)CC2)no1` (stereo not drawn) [4-(4-Methanesulfonylamino-cyclohexanecarbonyl)-[1,4]diazepane-1-carboxylic acid (5-tert-butyl-isoxazol-3-yl)-amide], for which the agonistic activity result was “agonistic activity”.

With `COc1ccc(C(=O)N2CCCN(C(=O)Nc3ccc4ccccc4c3)CC2)cc1` [4-(4-Methoxy-benzoyl)-[1,4]diazepane-1-carboxylic acid naphthalen-2-ylamide], the agonistic activity entry was “agonistic activity”.

In the case of `COC1CCC(C(=O)N2CCCN(C(=O)Nc3cc(C(C)(C)C)on3)CC2)CC1` (stereo not drawn) [4-(4-Methoxy-cyclohexanecarbonyl)-[1,4]diazepane-1-carboxylic acid (5-tert-butyl-isoxazol-3-yl)-amide], the agonistic activity entry is given as “agonistic activity”.

Take `COC1CCN(C(=O)N2CCCN(C(=O)Nc3cc(C(C)(C)C)no3)CC2)CC1` [4-(4-Methoxy-piperidine-1-carbonyl)-[1,4]diazepane-1-carboxylic acid (3-tert-butyl-isoxazol-5-yl)-amide]: the agonistic activity entry is “agonistic activity”.
